Laboratory results as given in patent US10894076B2 (PEGBIO CO., LTD., priority 2015, dated 2021).

Key:
DIO mice [1] = assay: Long-term administration of PB-716 series conjugates, weight loss in DIO mice (Example 16); format: in vivo, C57BL/6 mice
Description: […] The continuous administration experiments was conducted for a total of 14 days. During the experimental period, the body weight and food intake of the mice were measured every day. Random blood sugar level was measured before the start of the experiment and after the complement of the experiment.

DIO mice [2] = assay: Long-term administration of PB-718, PB-119 and PB-708+PB-120, weight loss in DIO mice (Example 17); format: in vivo, C57BL/6 mice; settings: 14 days
Description: The Victoza group was dosed once a day and the remaining groups were dosed once every 2 days. The continuous administration experiment was conducted for a total of 14 days. During the experimental period, the body weight and food intake of the mice were measured every day. Random blood sugar level was measured before the start of the experiment and after the complement of the experiment.

[3] = test system: nonalcoholic steatohepatitis (NASH) model mice; assay: Combination of PB-119 and PB-722 in nonalcoholic steatohepatitis (NASH) mouse model (Example 21); format: in vivo, C57/BL6J mice; settings: 10 mg/kg orally once a day, 21 days
Description: 30 C57/BL6J mice (purchased from Lingchang Biotechnology Co. Ltd., Shanghai, China) were used in this experiment. Twenty four of them were intraperitoneally injected with streptozotocin (STZ) one week after they were born and fed with high-fat diet (purchased from Research Diets, Inc) for five weeks to successfully create a nonalcoholic steatohepatitis (NASH) model. The other 6 were used as normal control and fed with normal diet. The administration started at the sixth week. […] The positive control group was orally administered once a day and the other groups were administered subcutaneously once every two days for 21 consecutive days. During the administration period, body weight was measured every day and the food intake was measured every two days. After the last day of administration, the animals were fasted overnight, and then weighed and euthanized. Serum and liver tissues were taken and the liver weights were measured. Serum glucose and insulin levels were detected. Liver tissue was fixed with formaldehyde solution, and tissue sections were made and stained with HE, oil red and Sirius red. The sections were examined and scored to determine the NASH index.

DIO mice [4] = assay: Long-term administration of PB-119 with PB-721 or PB-722, weight loss and lipids in DIO mice (Example 18); format: in vivo, C57BL/6 mice; settings: for decrease of liver triglyceride content compared with model control group / decrease of serum total cholesterol content / serum triglyceride level: Day21; for decrease of cumulative food intake compared with model control group / body weight decrease compared with that before the administration: 21 days
Description: Each group was administered subcutaneously, once every two days, and the experiment lasted for 21 days with 11 administrations. During the experimental period, the body weight and food intake of the mice were measured every day. The blood sugar level was measured at Day1 and Day21, and the serum triglyceride serum, total cholesterol, liver triglyceride and other indexes were measured at Day21.

DIO mice [5] = assay: Combination of PB-119 and PB-722, weight loss in DIO mice, 21 days (Example 20); format: in vivo, C57BL/6 mice; settings: 10 nmol/kg once every two days
Description: Male C57BL/6 mice (from the same source as described above) were fed with high-fat diet (45% kcal) for 22 weeks. […] 36 DIO mice were divided into 6 groups based on their body weight and random blood sugar level, with 6 mice per group. […] Except that administration was carried out twice a day in group 6, administration was carried out once every two days in other groups. The experiment was conducted for a total of 21 days for a continuous administration. The body weight and food intake of the mice were measured on the day of the administration, and random blood sugar level and fasting blood sugar level were measured on the second day after the last administration.
After 21 days of administration, an oral glucose tolerance experiment was performed. Mice were orally given 2.5 g/kg glucose solution, and random glucose level was measured at 0 min, 15 min, 30 min, 60 min and 120 min after sugar feeding.

CCCCCCCCCCCCCCCC(=O)N[C@@H](CCC(=O)NCCCC[C@H](NC(=O)[C@H](C)NC(=O)[C@H](C)NC(=O)[C@H](CCC(N)=O)NC(=O)CNC(=O)[C@H](CCC(=O)O)NC(=O)[C@H](CC(C)C)NC(=O)[C@H](Cc1ccc(O)cc1)NC(=O)[C@H](CO)NC(=O)[C@H](CO)NC(=O)[C@@H](NC(=O)[C@H](CC(=O)O)NC(=O)[C@H](CO)NC(=O)[C@@H](NC(=O)[C@H](Cc1ccccc1)NC(=O)[C@@H](NC(=O)CNC(=O)[C@H](CCC(=O)O)NC(=O)[C@H](C)NC(=O)[C@@H](N)Cc1cnc[nH]1)[C@@H](C)O)[C@@H](C)O)C(C)C)C(=O)N[C@@H](CCC(=O)O)C(=O)N[C@@H](Cc1ccccc1)C(=O)N[C@H](C(=O)N[C@@H](C)C(=O)N[C@@H](Cc1c[nH]c2ccccc12)C(=O)N[C@@H](CC(C)C)C(=O)N[C@H](C(=O)N[C@@H](CCCNC(=N)N)C(=O)NCC(=O)N[C@@H](CCCNC(=N)N)C(=O)NCC(=O)O)C(C)C)[C@@H](C)CC)C(=O)O [Victoza, reference compound]
body weight decrease compared with that before the administration (DIO mice [1]; 200 μg/kg once a day, 14 days): 15.83% | decrease of cumulative food intake relative to model control group (DIO mice [1]; 200 μg/kg once a day, end of 14-day continuous administration): 50.82% | body weight compared with control group by 96 hours after first administration (DIO mice [1]; Victoza 200 μg/kg, single administration): no significant difference | body weight decrease compared with that before the administration (DIO mice [2]; 200 μg/kg once a day): 15.92%

CCCc1nc2c(C)cc(-c3nc4ccccc4n3C)cc2n1Cc1ccc(-c2ccccc2C(=O)O)cc1 [telmisartan]
blood sugar level [3]: no effect

mPEG-23 KD-ppMAL--PB-740 (HSQGTFTSDYSKYLDSRRAQDFVQWLMNTC; mPEG-23KD-ppMAL conjugate) [PB-721]
decrease of liver triglyceride content compared with model control group (DIO mice [4]; 60 nmol/kg alone): 73.29% | decrease of serum total cholesterol content (DIO mice [4]; 60 nmol/kg alone): 60.86% | serum triglyceride level (DIO mice [4]; 60 nmol/kg alone): did not significantly improve | decrease of cumulative food intake compared with model control group (DIO mice [4]; 60 nmol/kg alone, s.c. once every two days): 2.36% | body weight decrease compared with that before the administration (DIO mice [4]; alone, 60 nmol/L as printed, s.c. once every two days): 21.65%

mPEG-23 KD-ppMAL-PB-105 [PB-119]
decrease of liver triglyceride content compared with model control group (DIO mice [4]; 10 nmol/kg alone): 12.67% | decrease of serum total cholesterol content (DIO mice [4]; 10 nmol/kg alone): 39.35% | serum triglyceride level (DIO mice [4]; 10 nmol/kg alone): did not significantly improve | decrease of cumulative food intake compared with model control group (DIO mice [4]; 10 nmol/kg alone, s.c. once every two days): 25.14% | body weight decrease compared with that before the administration (DIO mice [4]; 10 nmol/kg s.c. once every two days): 14.37% | body weight decrease compared with that before the administration (DIO mice [2]; 210 μg/kg once every 2 days): 13.33% | decrease of cumulative food intake compared with control group (DIO mice [2]; 210 μg/kg once every 2 days): 39.95% | decrease of random blood sugar level (DIO mice [2]; 210 μg/kg once every 2 days): 27.27% | body weight decrease compared with that before the administration (DIO mice [5]): 16.6% | decrease in cumulative food intake compared with control group (DIO mice [5]): 14.4% | fasting blood sugar level decrease compared with that before administration (DIO mice [5]): 17.9%
